Reference: publication PMC7988358, “Characterization of GMPP from Dendrobium huoshanense yielding GDP-D-mannose” (Open Life Sciences, 2021)

Target: T1, DhGMPP (Dendrobium huoshanense, UniProt A0A348HAW3)
T1 construct: gene GMPP; E. coli BL21-AI crude soluble extract, not purified
T1 sequence (A0A348HAW3 1-415): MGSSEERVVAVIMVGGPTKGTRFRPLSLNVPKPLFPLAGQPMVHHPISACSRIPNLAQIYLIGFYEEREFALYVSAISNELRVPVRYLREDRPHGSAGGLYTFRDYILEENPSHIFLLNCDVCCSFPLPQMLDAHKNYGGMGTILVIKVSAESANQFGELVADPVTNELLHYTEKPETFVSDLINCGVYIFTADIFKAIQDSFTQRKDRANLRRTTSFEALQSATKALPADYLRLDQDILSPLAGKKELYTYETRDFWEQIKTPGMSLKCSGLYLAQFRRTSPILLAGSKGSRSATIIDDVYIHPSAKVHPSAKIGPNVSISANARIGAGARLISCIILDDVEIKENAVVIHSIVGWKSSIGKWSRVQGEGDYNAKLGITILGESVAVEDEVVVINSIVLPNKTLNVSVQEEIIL
Assay: HPLC ([…] nm) detection of GDP-mannose formed
Format: biochemical
Conditions: 2.5 mM GTP, 5 mM MgCl2, 50 mM Tris-HCl pH 7.4, 37 °C, 10 min, crude E. coli extract, untransformed-host extract and boiled protein as controls

Row | SMILES | HPLC (254 nm) detection of GDP-mannose formed (5 mM α-D-mannose-phosphate) | HPLC (254 nm) detection of GDP-mannose formed (5 mM substrate)
1 | Nc1nc2c(ncn2[C@@H]2O[C@H](COP(=O)(O)OP(=O)(O)OP(=O)(O)O)[C@@H](O)[C@H]2O)c(=O)[nH]1 [GTP] | By utilizing GTP and α-D-mannose-phosphate as substrates, DhGMPP catalyzes the reaction to yield GDP-mannose | –
2 | O=P(O)(O)O[C@H]1O[C@H](CO)[C@@H](O)[C@H](O)[C@@H]1O [α-D-mannose-phosphate] | – | By utilizing GTP and α-D-mannose-phosphate as substrates, DhGMPP catalyzes the reaction to yield GDP-mannose
